The values that follow come from paper PMC11672299, “Conjugation of Polycationic Peptides Extends the Efficacy Spectrum of β‐Lactam Antibiotics” (Advanced Science, 2024).

Data set [1] deals with E. casseliflavus ATCC 700327. Put plainly: microbe, parasite or virus in culture. The note with it: E. casseliflavus ATCC 700327, median (n = 3). The class given is cell-based. How it is done:
(§1) The minimum inhibitory concentration (MIC) of the β‐lactam–peptide conjugates was determined by broth microdilution as previously described.^[ [17] ^] Briefly, in cation‐adjusted MHB II medium, a twofold serial dilution of the compounds was prepared in 96‐well round‐bottom polystyrene or polypropylene microtiter plates with each well containing 50 µL. The plates were inoculated with 50 µL bacterial suspension and the final inoculum, in a total volume of 100 µL, contained 5 × 10^5 CFU mL^−1. The microplates were incubated for 20 h at 37 ± 1 °C. The lowest concentration preventing visible bacterial growth was considered the MIC value. For susceptibility testing of combinations of β‐lactamase‐inhibitors with either a β‐lactam antibiotic or a β‐lactam–peptide conjugate, fixed concentrations of the inhibitors according to the EUCAST (European Committee on Antimicrobial Susceptibility Testing) guidelines (clavulanic acid = 2 mg L^−1, avibactam = 4 mg L^−1) were used.

Another data set relates to E. faecalis ATCC 29212. Put plainly: microbe, parasite or virus in culture. The class given is cell-based. The note with it: E. faecalis ATCC 29212, median (n = 3). How it is done: as §1
For another data set, the system named is B. subtilis DSM 10. Put plainly: microbe, parasite or virus in culture. The class given is cell-based. How it is done:
as §1

The nature of another data set: Scintigraphy in mice. The class given is in vivo, Swiss mice. How it is done: To enable radiolabeling of the β‐lactam–peptide conjugates, their peptide sequence was elongated by an N‐terminal D‐tyrosine. […] The solution was mixed with 5 MBq of iodine‐125 and radiolabeling was performed using the chloramine T method as previously described.^[ [35] ^] After 30 s, the reaction was quenched by the addition of a saturated methionine solution and the radiolabeled compound purified by reversed‐phase preparative radio‐HPLC (1100 series, Agilent Technologies, Santa Clara, CA, USA). Analysis was performed by analytical radio‐HPLC (1100 series, Agilent Technologies, Santa Clara, CA, USA) using a linear gradient from water (+ 0.1% TFA) to acetonitrile (+ 0.1% TFA) over 5 min at a flow rate of 2 mL min^−1.
All animal studies were approved by the Animal Care and Use committees from Regierungspräsidium Karlsruhe (Karlsruhe, Germany; reference number 35–9185.81/G‐199/21; date of approval: November 23, 2021). To obtain scintigraphic images, 1–3 MBq of the respective ^125I‐radiolabeled β‐lactam–peptide conjugate was intravenously injected into the tail vein of isoflurane anaesthetized female Wistar rats or Swiss mice. Scintigraphic images were taken with a γ‐camera (Biospace Lab, Nesles‐la‐Vallée, France) at 10 min, 1, 2, 3, and 24 h after injection of the compounds.

The subject of data set [2] is A. baumannii SC300007 (Oxa23). The data set can be described thus: microbe, parasite or virus in culture. Format: cell-based. The note with it: Acinetobacter baumannii, 20 h, combinations: avibactam fixed 4 mg L^−1, clavulanic acid 2 mg L^−1, median (n = 3). How it is done: as §1
In data set [3] the test system is K. pneumoniae 0 6841/Nr.45 (Oxa48). The data set can be described thus: microbe, parasite or virus in culture. The class given is cell-based. The note with it: Klebsiella pneumoniae, 20 h; K. pneumoniae 06841/Nr.45 (Oxa48); combinations: avibactam fixed 4 mg L^−1, clavulanic acid 2 mg L^−1; median (n = 3). How it is done:
as §1

The test system of data set [4] is K. pneumoniae BL809453 (KPC). The data set can be described thus: microbe, parasite or virus in culture. The class given is cell-based. The conditions noted are these: Klebsiella pneumoniae, 20 h, combinations: avibactam fixed 4 mg L^−1, clavulanic acid 2 mg L^−1, median (n = 3). How it is done: as §1
For data set [5], the system named is K. pneumoniae ATCC 700 603 (SHV‐18). The data set can be described thus: microbe, parasite or virus in culture. Format: cell-based. The note with it: Klebsiella pneumoniae, 20 h; K. pneumoniae ATCC 700603 (SHV‐18); combinations: avibactam fixed 4 mg L^−1, clavulanic acid 2 mg L^−1; median (n = 3). How it is done: as §1
A further data set concerns E. coli ATCC 25 922 (–). The data set can be described thus: microbe, parasite or virus in culture. Format: cell-based. The conditions noted are these: Escherichia coli, 20 h; E. coli ATCC 25922 (no β‐lactamase); combinations: avibactam fixed 4 mg L^−1, clavulanic acid 2 mg L^−1; median (n = 3). How it is done:
as §1

Setting [6] is: Bacillus subtilis, DSM10, B. subtilis DSM 10, median (n = 3), read-out: MIC.
Where [7] appears, read: B. subtilis DSM 10, median (n = 3).
The mark [8] stands for this setting: Swiss mice, i.v., ^125I‐labelled, scintigraphy.

Read-outs that look alike come from different tables or passages of the source. Square brackets hold non-standard residues; d marks the D form. Peptide text beside a SMILES is read from it. * marks the point of attachment. X1 = CC(C)(O/N=C(\C(=O)N[C@@H]1C(=O)N2C(C(=O)[O-])=C(C[n+]3ccccc3)CS[C@H]12)c1csc(N)n1)C(=O)NCCCCCCN1C(=O)CC(*)C1=O; X2 = C[C@H]1[C@H](NC(=O)/C(=N\OC(C)(C)C(=O)NCCCCCCN2C(=O)CC(*)C2=O)c2csc(N)n2)C(=O)N1S(=O)(=O)O

As to `CC(C)(O/N=C(\C(=O)N[C@@H]1C(=O)N2C(C(=O)O)=C(C[n+]3ccccc3)CS[C@H]12)c1csc(N)n1)C(=O)NCCCCCCN1C(=O)C=CC1=O` [CTZ–BB linker], the MIC in data set [1] (Enterococcus casseliflavus, ATCC700327, read-out: MIC) was > 64 µg/mL; in the data set with E. faecalis ATCC 29212 (Enterococcus faecalis, ATCC29212, read-out: MIC), 1 µg/mL; in the data set with B. subtilis DSM 10 (setting [6]), 24 µg/mL.
In the case of `CC(C)(O/N=C(\C(=O)N[C@@H]1C(=O)N2C(C(=O)[O-])=C(C[n+]3ccccc3)CS[C@H]12)c1csc(N)n1)C(=O)NCCCCCCN1C(=O)CC(SC[C@H](NC(=O)[C@H](CCCCN)NC(=O)[C@H](CCCCN)NC(=O)[C@H](CCCCN)NC(=O)[C@H](CCCCN)NC(=O)[C@H](CCCCN)NC(=O)[C@@H](N)CCCCN)C(N)=O)C1=O` (stereo partly drawn) [CTZ-K6] (H-KKKKKKC(X1)-NH2; N-terminus assumed), in “Scintigraphy in mice” (mouse, in vivo, iv), the “elimination route / biodistribution” value is “renal elimination”. The MIC in the data set with B. subtilis DSM 10 (DSM 10, 20 h) is 0.02 µg/mL.
Consider `NC(=O)CCCCCN1C(=O)C=CC1=O` [BB linker, 6‐maleinimidohexanamide linker], for which the MIC (in data set [1]; in the data set with E. faecalis ATCC 29212; in the data set with B. subtilis DSM 10 (setting [7])) was > 64 µg/mL each time.
In the case of `O=C(O)[C@H]1/C(=C/CO)O[C@@H]2CC(=O)N21` [CLV, clavulanic acid], the MIC in data set [2] was > 64 µg/mL; in data set [3] it was > 64 µg/mL; in [4], > 64 µg/mL; in data set [5] it was 64 µg/mL; in the data set with E. coli ATCC 25 922 (–), 32 µg/mL.
With `NC(=O)[C@@H]1CC[C@@H]2CN1C(=O)N2OS(=O)(=O)O` [AVI, avibactam], the MIC in data set [2] is > 64 µg/mL; in data set [3], > 64 µg/mL; in data set [4], > 64 µg/mL; in [5], > 64 µg/mL; in the data set with E. coli ATCC 25 922 (–) it was 16 µg/mL.
Regarding `CC(C)(O/N=C(\C(=O)N[C@@H]1C(=O)N2C(C(=O)[O-])=C(C[n+]3ccccc3)CS[C@H]12)c1csc(N)n1)C(=O)NCCCCCCN1C(=O)CC(SC[C@H](NC(=O)[C@H](CCCNC(=N)N)NC(=O)[C@H](CCCNC(=N)N)NC(=O)[C@H](CCCNC(=N)N)NC(=O)[C@H](CCCNC(=N)N)NC(=O)[C@H](CCCNC(=N)N)NC(=O)[C@H](CCCNC(=N)N)NC(=O)[C@H](N)Cc2ccc(O)cc2)C(N)=O)C1=O` (stereo partly drawn) [CTZ-yR6] (H-[dY]RRRRRRC(X1)-NH2; N-terminus assumed), the “elimination route / biodistribution” value in “Scintigraphy in mice” (setting [8]) is listed as “mainly accumulated in the liver”.
On to `C[C@H]1[C@H](NC(=O)/C(=N\OC(C)(C)C(=O)O)c2csc(N)n2)C(=O)N1S(=O)(=O)O` [AZT, aztreonam], for which the MIC in data set [2] stood at 64 µg/mL; in the data set with E. coli ATCC 25 922 (–) it was 0.06 µg/mL; in the data set with B. subtilis DSM 10 (Bacillus subtilis, DSM10), 512 µg/mL.
For the compound `CC(C)(O/N=C(\C(=O)N[C@@H]1C(=O)N2C(C(=O)[O-])=C(C[n+]3ccccc3)CS[C@H]12)c1csc(N)n1)C(=O)NCCCCCCN1C(=O)CC(SC[C@H](NC(=O)[C@H](CCCCN)NC(=O)[C@H](CCCCN)NC(=O)[C@H](CCCCN)NC(=O)[C@H](CCCCN)NC(=O)[C@H](CCCCN)NC(=O)[C@H](CCCCN)NC(=O)[C@H](N)Cc2ccc(O)cc2)C(N)=O)C1=O` (stereo partly drawn) [CTZ-yK6] (H-[dY]KKKKKKC(X1)-NH2; N-terminus assumed), the “elimination route / biodistribution” value in the data set “Scintigraphy in mice” (setting [8]) is listed as “eliminated by the kidneys”.
Regarding `C[C@H]1[C@H](NC(=O)/C(=N\OC(C)(C)C(=O)NCCCCCCN2C(=O)CC(SC[C@H](NC(=O)[C@H](CCCNC(=N)N)NC(=O)[C@H](CCCCN)NC(=O)[C@H](CCCNC(=N)N)NC(=O)[C@H](CCCCN)NC(=O)[C@H](CCCNC(=N)N)NC(=O)[C@@H](N)CCCCN)C(N)=O)C2=O)c2csc(N)n2)C(=O)N1S(=O)(=O)O` (stereo partly drawn) [AZT-(KR)3] (H-KRKRKRC(X2)-NH2; N-terminus assumed), the MIC in the data set with B. subtilis DSM 10 (DSM 10, 20 h) was 0.06 µg/mL.
On to `CC1(C)S[C@@H]2[C@H](NC(=O)[C@H](N)c3ccc(O)cc3)C(=O)N2[C@H]1C(=O)O` [AMO, amoxicillin], for which the MIC in [2] is > 64 µg/mL; in [3], > 64 µg/mL; in data set [4], > 64 µg/mL; in data set [5] it was > 64 µg/mL; in the data set with E. coli ATCC 25 922 (–), 6 µg/mL; in the data set with B. subtilis DSM 10 (setting [6]), 0.1 µg/mL.
In the case of `C[C@H]1[C@H](NC(=O)/C(=N\OC(C)(C)C(=O)NCCCCCCN2C(=O)CC(SC[C@H](NC(=O)[C@H](CCCNC(=N)N)NC(=O)[C@H](CCCNC(=N)N)NC(=O)[C@H](CCCNC(=N)N)NC(=O)[C@H](CCCNC(=N)N)NC(=O)[C@H](CCCNC(=N)N)NC(=O)[C@H](CCCNC(=N)N)NC(=O)[C@H](N)Cc3ccc(O)cc3)C(N)=O)C2=O)c2csc(N)n2)C(=O)N1S(=O)(=O)O` (stereo partly drawn) [AZT-yR6] (H-[dY]RRRRRRC(X2)-NH2; N-terminus assumed), the MIC in the data set on B. subtilis DSM 10 (setting [7]) turned out to be 1 µg/mL.
Consider `C[C@H]1[C@H](NC(=O)/C(=N\OC(C)(C)C(=O)NCCCCCCN2C(=O)CC(SC[C@H](NC(=O)[C@H](CCCNC(=N)N)NC(=O)CNC(=O)[C@H](CCCNC(=N)N)NC(=O)CNC(=O)[C@H](CCCNC(=N)N)NC(=O)CN)C(N)=O)C2=O)c2csc(N)n2)C(=O)N1S(=O)(=O)O` (stereo partly drawn) [AZT-(GR)3] (H-GRGRGRC(X2)-NH2; N-terminus assumed), for which the MIC in the data set with B. subtilis DSM 10 (DSM 10, 20 h) was determined as 1 µg/mL.
With `C[C@H]1[C@H](NC(=O)/C(=N\OC(C)(C)C(=O)NCCCCCCN2C(=O)CC(SC[C@H](NC(=O)CNC(=O)CNC(=O)CNC(=O)CNC(=O)CNC(=O)CN)C(N)=O)C2=O)c2csc(N)n2)C(=O)N1S(=O)(=O)O` (stereo partly drawn) [AZT-G6] (H-GGGGGGC(X2)-NH2; N-terminus assumed), in the data set on B. subtilis DSM 10 (DSM 10, 20 h), the MIC was found to be 64 µg/mL.
